Patent US8933100B2 (priority 2012, dated 2015)
Like-named read-outs stand apart in the source and are kept apart here.

Assays:
male BALB/c mice = assay: In vivo efficacy test by forced swimming; parameters: species or system mouse; conditions: oral, 1 hour before test; Example 1 10, 30 or 100 mg/kg, paroxetine 30 or 100 mg/kg; last 4 minutes; FIG. 1
Description: After 1 hour, the mice were placed individually in glass cylinders (19 cm in height, 9 cm in diameter) holding 9 cm of water, and observed at 23° C. for 6 minutes, during which time their behavior was recorded with a video camera. The control group was given the same amount of vehicle (0.5% methyl cellulose solution, 10 mL/kg).
The immobility times during the last 4 minutes were calculated from the video recordings. The mice were considered to be immobile if the following three behavioral criteria were met: they stopped struggling, stopped climbing, and floated on the water basically immobile, with only the slight movement necessary to keep their heads above water.

CYP1A2 [1] = target: T1, CYP1A2 (Homo sapiens, UniProt P05177); assay: Competitive CYP inhibition (Method 2), human hepatic microsome; type: in vitro ADME; parameters: containing human hepatic microsome (0.2 mg/mL); from tissue; host or cells: human hepatic microsomal fraction; conditions: tested at 1 or 10 μM, phenacetin 10 μM, n = 2; read-out: CYP1A2 IC50 score (competitive inhibition)
T1 sequence (P05177 1-516): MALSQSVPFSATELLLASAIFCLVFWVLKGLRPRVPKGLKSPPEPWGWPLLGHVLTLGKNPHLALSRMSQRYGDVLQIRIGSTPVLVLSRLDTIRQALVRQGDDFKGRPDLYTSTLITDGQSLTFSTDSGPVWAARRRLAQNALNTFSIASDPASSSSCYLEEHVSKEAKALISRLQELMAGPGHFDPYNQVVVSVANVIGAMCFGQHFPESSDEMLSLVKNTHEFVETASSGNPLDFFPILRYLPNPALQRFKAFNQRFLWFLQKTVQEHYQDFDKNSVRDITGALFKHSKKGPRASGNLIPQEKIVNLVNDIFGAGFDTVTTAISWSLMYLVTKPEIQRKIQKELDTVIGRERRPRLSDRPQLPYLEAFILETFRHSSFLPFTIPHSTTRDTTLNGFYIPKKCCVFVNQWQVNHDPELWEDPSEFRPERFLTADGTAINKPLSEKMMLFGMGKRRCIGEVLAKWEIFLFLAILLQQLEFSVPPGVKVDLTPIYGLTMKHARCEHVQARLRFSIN
Description: (§1) The inhibition rate was determined from the amounts of model substrate metabolites with and without addition of the test substance at each test substance concentration, and the IC50 value was calculated from the inhibition rate (calculation method in accordance with Xenobiotica, 1999, 29(1), 53-75).

CYP2C9 [2] = target: T2, CYP2C9 (Homo sapiens, UniProt P11712); assay: as above; type: in vitro ADME
T2 sequence (P11712 whole entry): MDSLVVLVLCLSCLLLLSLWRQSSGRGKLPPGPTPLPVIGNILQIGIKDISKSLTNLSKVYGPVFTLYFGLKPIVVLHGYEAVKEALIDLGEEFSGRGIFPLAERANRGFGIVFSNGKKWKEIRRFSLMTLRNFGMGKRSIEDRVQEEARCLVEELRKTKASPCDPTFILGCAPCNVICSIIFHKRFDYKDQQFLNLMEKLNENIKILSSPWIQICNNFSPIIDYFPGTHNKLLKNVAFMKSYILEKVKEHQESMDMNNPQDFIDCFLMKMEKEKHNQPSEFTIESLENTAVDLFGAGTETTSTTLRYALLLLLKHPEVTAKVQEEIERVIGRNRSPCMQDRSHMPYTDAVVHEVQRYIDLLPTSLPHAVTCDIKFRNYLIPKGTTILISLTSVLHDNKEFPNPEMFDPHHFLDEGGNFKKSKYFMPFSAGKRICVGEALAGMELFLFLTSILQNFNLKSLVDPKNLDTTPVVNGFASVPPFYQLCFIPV
Description: as §1

CYP2D6 [3] = target: T3, CYP2D6 (Homo sapiens, UniProt P10635); assay: Time-dependent CYP inhibition (Method 1), human hepatic microsome; type: in vitro ADME; conditions: 30 min pre-incubation at 37° C., bufuralol, n = 2
T3 sequence (P10635 whole entry): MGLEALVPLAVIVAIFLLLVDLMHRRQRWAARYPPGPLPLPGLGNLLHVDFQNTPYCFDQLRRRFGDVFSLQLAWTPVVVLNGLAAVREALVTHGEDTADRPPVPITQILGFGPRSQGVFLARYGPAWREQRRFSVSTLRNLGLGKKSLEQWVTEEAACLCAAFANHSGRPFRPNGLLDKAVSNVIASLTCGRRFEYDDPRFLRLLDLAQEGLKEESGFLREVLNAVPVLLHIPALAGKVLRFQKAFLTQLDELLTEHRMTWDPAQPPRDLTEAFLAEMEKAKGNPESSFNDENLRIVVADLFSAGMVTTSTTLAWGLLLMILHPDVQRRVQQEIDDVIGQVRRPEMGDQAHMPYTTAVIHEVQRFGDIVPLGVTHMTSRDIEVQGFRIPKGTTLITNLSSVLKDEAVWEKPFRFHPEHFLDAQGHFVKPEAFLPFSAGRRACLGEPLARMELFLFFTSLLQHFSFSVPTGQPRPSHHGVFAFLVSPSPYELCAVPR
Description: (§2) The test substance was added to an enzyme solution (containing human hepatic microsome (0.2 mg/mL), 100 mM Kpi and 0.1 mM EDTA), and pre-incubated for 30 minutes at 37° C. in the presence of or absence of the coenzyme. The final concentration of the test substance was set at 0.1, 0.2, 0.4, 0.5, 1, 2, 10 or 50 μM. A NADPH generating system (60 mM MgCl2 solution containing 3.6 mM β-NADP^+, 90 mM glucose-6 phosphate and 1 Unit/mL glucose-6-phosphate dehydrogenase, incubated for 5 minutes to generate NADPH) was used as the coenzyme. After pre-incubation, part of the reaction solution was collected, diluted 10 times by mixing with a model substrate solution and the NADPH generating system, and then incubated for 10 minutes at 37° C. An equal amount of a mixed solution of acetonitrile and methanol (1:1, containing 0.05 μM dextrophan or 0.05 μM propranolol as an internal standard) was added to terminate the reaction, and metabolites of the model substrate in the reaction solution were measured by LC-MS/MS. […] The ratio relative to the amount of model substrate metabolites in the control test was given as residual activity. The ratio of residual activity in the presence of NADPH relative to residual activity in the absence of NADPH was evaluated, and the ratio of 80% or less was defined “+”, while the ratio of above 80% was defined as “−”.

CYP2C9 [4] = target: T2, CYP2C9; assay: as above; type: in vitro ADME; conditions: 30 min pre-incubation at 37° C., tolbutamide, n = 2
Description: as §2

serotonin transporter = target: T4, serotonin transporter (Rattus norvegicus, UniProt P31652); assay: Inhibitory action on serotonin transporter (fluorescent substrate uptake in rat platelets); type: cell-based
T4 construct: evaluated using rat platelets expressing serotonin transporters; from tissue
T4 sequence (P31652 whole entry): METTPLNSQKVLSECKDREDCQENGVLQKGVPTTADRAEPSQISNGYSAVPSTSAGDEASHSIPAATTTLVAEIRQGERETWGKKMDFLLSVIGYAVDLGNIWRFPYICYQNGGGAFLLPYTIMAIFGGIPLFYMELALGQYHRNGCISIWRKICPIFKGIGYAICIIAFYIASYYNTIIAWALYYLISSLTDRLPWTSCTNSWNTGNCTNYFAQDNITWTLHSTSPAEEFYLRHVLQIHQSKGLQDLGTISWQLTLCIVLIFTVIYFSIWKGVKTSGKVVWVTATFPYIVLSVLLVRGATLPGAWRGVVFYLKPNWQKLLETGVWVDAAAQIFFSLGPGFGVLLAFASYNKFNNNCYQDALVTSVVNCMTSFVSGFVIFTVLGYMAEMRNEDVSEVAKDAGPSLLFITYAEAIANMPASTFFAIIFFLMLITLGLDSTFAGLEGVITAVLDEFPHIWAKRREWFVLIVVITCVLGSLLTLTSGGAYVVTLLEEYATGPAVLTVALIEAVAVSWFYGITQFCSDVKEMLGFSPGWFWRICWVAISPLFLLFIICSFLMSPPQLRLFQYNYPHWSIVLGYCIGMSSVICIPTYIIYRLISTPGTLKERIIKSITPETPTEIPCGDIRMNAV
Description: That is, the test compound was added to rat platelets, the fluorescent substance of a Neurotransmitter Transporter Activity Assay Kit (Molecular Devices, R8174) was added beginning after 15 minutes, and changes in fluorescent intensity from uptake of the fluorescent substance were measured over time to evaluate the inhibitory effect of the test compound on serotonin transporter.
2 Centrifugation was carried out at 350 g at room temperature for 5 minutes, and the supernatant containing platelet-rich plasma was collected in 15 ml falcon tubes.
3 Centrifugation was carried out at 2100 g at room temperature for 10 minutes to obtain platelets as a pellet. Ca-free K5 buffer was added in the amount of 0.7 times the amount of platelet-rich plasma obtained in operation 2, and the pellet was triturated by pipetting.
5 The fluorescent substance of a Neurotransmitter Transporter Activity Assay Kit was added, and changes in fluorescent intensity over time from uptake of the fluorescent substance through serotonin transporters were measured with a FDSS 6000 (Hamamatsu Photonics).

CYP3A4 [5] = target: T5, CYP3A4 (Homo sapiens, UniProt P08684); assay: Time-dependent CYP inhibition (Method 1), human hepatic microsome; type: in vitro ADME; conditions: 30 min pre-incubation at 37° C., midazolam, n = 2
T5 sequence (P08684 whole entry): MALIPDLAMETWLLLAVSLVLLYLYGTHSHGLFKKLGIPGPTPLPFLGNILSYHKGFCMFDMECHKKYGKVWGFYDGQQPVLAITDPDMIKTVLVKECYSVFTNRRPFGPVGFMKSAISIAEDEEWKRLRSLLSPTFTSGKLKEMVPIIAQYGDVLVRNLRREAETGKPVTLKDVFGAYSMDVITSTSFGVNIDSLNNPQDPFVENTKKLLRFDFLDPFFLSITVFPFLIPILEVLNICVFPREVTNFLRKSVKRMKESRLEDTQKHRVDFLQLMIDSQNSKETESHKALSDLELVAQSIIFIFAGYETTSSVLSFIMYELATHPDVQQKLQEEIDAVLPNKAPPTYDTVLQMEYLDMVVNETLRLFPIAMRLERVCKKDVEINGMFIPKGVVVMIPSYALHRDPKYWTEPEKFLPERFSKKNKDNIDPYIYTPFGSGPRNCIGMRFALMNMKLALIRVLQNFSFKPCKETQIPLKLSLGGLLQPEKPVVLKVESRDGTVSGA
Description: as §2

CYP2C19 [6] = target: T6, CYP2C19 (Homo sapiens, UniProt P33261); assay: as above; type: in vitro ADME; conditions: 30 min pre-incubation at 37° C., S-mephenytoin, n = 2
T6 sequence (P33261 whole entry): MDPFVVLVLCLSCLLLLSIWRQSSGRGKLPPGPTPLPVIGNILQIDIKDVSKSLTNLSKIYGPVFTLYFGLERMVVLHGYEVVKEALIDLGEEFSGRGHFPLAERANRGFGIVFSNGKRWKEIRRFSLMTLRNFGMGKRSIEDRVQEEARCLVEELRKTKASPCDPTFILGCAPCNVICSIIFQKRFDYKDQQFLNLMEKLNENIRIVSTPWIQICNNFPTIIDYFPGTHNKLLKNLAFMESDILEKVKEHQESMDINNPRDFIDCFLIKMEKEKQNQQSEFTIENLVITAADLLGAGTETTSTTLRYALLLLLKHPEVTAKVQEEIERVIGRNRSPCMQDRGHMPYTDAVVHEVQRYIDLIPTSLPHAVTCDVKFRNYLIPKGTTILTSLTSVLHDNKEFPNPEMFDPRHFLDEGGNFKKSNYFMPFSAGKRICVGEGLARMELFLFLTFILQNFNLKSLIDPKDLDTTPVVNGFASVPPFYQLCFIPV
Description: as §2

CYP1A2 [7] = target: T1, CYP1A2; conditions: 30 min pre-incubation at 37° C., phenacetin, n = 2
Description: as §2

CYP2D6 [8] = target: T3, CYP2D6; assay: Competitive CYP inhibition (Method 2), human hepatic microsome; type: in vitro ADME
Description: as §1

CYP3A4 [9] = target: T5, CYP3A4; assay: as above; type: in vitro ADME
Description: as §1

CYP2C19 [10] = target: T6, CYP2C19; assay: as above; type: in vitro ADME
Description: as §1

Row | SMILES | immobility time in forced swimming test (male BALB/c mice) | IC50 (CYP1A2 [1]) | IC50 (CYP2C9 [2]; tested at 1 or 10 μM, tolbutamide 100 μM, n = 2, read-out: CYP2C9 IC50 score (competitive inhibition)) | Ratio of residual CYP2D6 activity in presence vs absence of NADPH after pre-incubation (CYP2D6 [3]; 10 μM) | Ratio of residual CYP2D6 activity in presence vs absence of NADPH after pre-incubation (CYP2D6 [3]; 50 μM) | Ratio of residual CYP2C9 activity in presence vs absence of NADPH after pre-incubation (CYP2C9 [4]; 10 μM) | Ratio of residual CYP2C9 activity in presence vs absence of NADPH after pre-incubation (CYP2C9 [4]; 50 μM) | IC50 (serotonin transporter) | Ratio of residual CYP3A4 activity in presence vs absence of NADPH after pre-incubation (CYP3A4 [5]; 10 μM) | Ratio of residual CYP3A4 activity in presence vs absence of NADPH after pre-incubation (CYP3A4 [5]; 50 μM) | Ratio of residual CYP2C19 activity in presence vs absence of NADPH after pre-incubation (CYP2C19 [6]; 10 μM) | Ratio of residual CYP2C19 activity in presence vs absence of NADPH after pre-incubation (CYP2C19 [6]; 50 μM) | Ratio of residual CYP1A2 activity in presence vs absence of NADPH after pre-incubation (CYP1A2 [7]; 10 μM) | Ratio of residual CYP1A2 activity in presence vs absence of NADPH after pre-incubation (CYP1A2 [7]; 50 μM) | IC50 (CYP2D6 [8]) | IC50 (CYP3A4 [9]) | IC50 (CYP2C9 [2]) | IC50 (CYP2C19 [10])
1 | Fc1ccc([C@@H]2CCNC[C@H]2COc2ccc3c(c2)OCO3)cc1 [Paroxetine, (3S,4R)-3-[(2H-1,3-benzodioxol-5-yloxy)methyl]-4-(4-fluorophenyl)piperidine, reference compound] | dose-dependently suppressed immobility time | > 10 µM | > 10 µM | – | – | – | – | – | – | – | – | – | – | – | – | – | – | –
2 | Fc1ccc([C@@H]2CCNC[C@H]2COc2ccc3c(c2)COC3)cc1 [Example 1, (3S,4R)-3-[(1,3-dihydro-2-benzofuran-5-yloxy)methyl]-4-(4-fluorophenyl)piperidine] | dose-dependently suppressed immobility time | > 10 µM | – | − (the ratio of above 80% was defined as “−”) | − (the ratio of above 80% was defined as “−”) | − (the ratio of above 80% was defined as “−”) | − (the ratio of above 80% was defined as “−”) | 0.0024 µM | − (the ratio of above 80% was defined as “−”) | − (the ratio of above 80% was defined as “−”) | − (the ratio of above 80% was defined as “−”) | − (the ratio of above 80% was defined as “−”) | − (the ratio of above 80% was defined as “−”) | − (the ratio of above 80% was defined as “−”) | > 10 µM | > 10 µM | > 10 µM | > 10 µM
